Measured values published in patent US7473790B2 (Pfizer Inc., priority 2003, dated 2009).

What follows are compounds tested against T1, HCV polymerase (Hepatitis C virus genotype 1b, UniProt P26663) (assay: HCV polymerase primer/template-directed transcription assay (32P-GTP incorporation, filter binding)). Conditions: recombinant HCV polymerase; 30 minutes at 30° C.; concentration giving 50% inhibition of polymerase-directed transcription; read-out: IC50.
T1 construct: 2.5 pmoles (0.15 μg) HCV polymerase protein in a final volume of 75 μL
T1 sequence (P26663 2420-3010): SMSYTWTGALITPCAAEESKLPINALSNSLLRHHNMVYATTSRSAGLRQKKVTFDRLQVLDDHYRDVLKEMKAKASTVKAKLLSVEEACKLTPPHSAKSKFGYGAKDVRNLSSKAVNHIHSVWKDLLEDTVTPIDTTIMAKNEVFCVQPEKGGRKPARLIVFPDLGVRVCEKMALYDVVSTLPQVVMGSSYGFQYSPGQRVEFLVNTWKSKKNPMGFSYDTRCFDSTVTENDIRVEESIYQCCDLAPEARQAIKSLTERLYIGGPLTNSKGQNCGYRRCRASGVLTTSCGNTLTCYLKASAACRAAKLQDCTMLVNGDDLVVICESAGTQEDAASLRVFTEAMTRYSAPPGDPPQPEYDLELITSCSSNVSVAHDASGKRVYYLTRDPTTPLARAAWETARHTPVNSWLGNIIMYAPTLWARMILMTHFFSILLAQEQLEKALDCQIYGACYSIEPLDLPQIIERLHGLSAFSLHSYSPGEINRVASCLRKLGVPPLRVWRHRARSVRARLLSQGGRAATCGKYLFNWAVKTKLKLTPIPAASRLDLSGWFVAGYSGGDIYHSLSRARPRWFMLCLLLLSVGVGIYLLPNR
Assay type: biochemical
How it was run: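 Recombinant genotype 1b polymerase (30 nM) extended biotin-dG12 primer on poly(rC)300 template with 1 μM GTP plus α-32P-GTP, pH 7.2, 10 mM MgCl2, 30 min at 30° C, 1% DMSO final. Products captured on DE filters and counted. IC50 fitted from triplicate cpm, with a tight-binding correction applied below 200 nM.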
Work on `CN(c1ccc(CCC2(C3CCCC3)CC(=O)CC(=O)O2)cc1)S(C)(=O)=O` (centres unmarked) [A(88), N-{4-[2-(2-cyclopentyl-4,6-dioxotetrahydro-2H-pyran-2-yl)ethyl]phenyl}-N-methylmethanesulfonamide] yielded an IC50 of 2300 nM.
For `O=C1CC(=O)OC(CCc2ccc(O)c(C3CCCC3)c2)(C2CCCC2)C1` (centres unmarked) [A(89), 6-cyclopentyl-6-[2-(3-cyclopentyl-4-hydroxyphenyl)ethyl]dihydro-2H-pyran-2,4(3H)-dione], the IC50 was 2800 nM.
Compound `CCCc1cc(CCC2(C3CCCC3)CC(=O)CC(=O)O2)ccc1O` (centres unmarked) [A(90), 6-cyclopentyl-6-[2-(4-hydroxy-3-propylphenyl)ethyl]dihydro-2H-pyran-2,4(3H)-dione] has an IC50 of 770 nM.
`CCC(C#N)(CC)c1ccc(CCC2(C3CCCC3)CC(=O)CC(=O)O2)cc1F` (centres unmarked) [A(91), 2-{4-[2-(2-Cyclopentyl-4,6-dioxo-tetrahydro-pyran-2-yl)-ethyl]-2-fluoro-phenyl}-2-ethyl-butyronitrile] gave an IC50 of 500 nM.
`N#CC1(c2ccc(CCC3(C4CCCC4)CC(=O)CC(=O)O3)cc2F)CCC1` (centres unmarked) [A(92), 1-{4-[2-(2-Cyclopentyl-4,6-dioxo-tetrahydro-pyran-2-yl)-ethyl]-2-fluoro-phenyl}-cyclobutanecarbonitrile] gave an IC50 of 1000 nM.
In the case of `CC(C)c1cc(CCC2(C3CCCC3)CC(=O)CC(=O)O2)ccc1O` (centres unmarked) [A(93), 6-Cyclopentyl-6-[2-(4-hydroxy-3-isopropyl-phenyl)-ethyl]-dihydro-pyran-2,4-dione], the IC50 is reported as 700 nM.
Work on `CC(=O)Oc1ccc(CCC2(C3CCCC3)CC(=O)CC(=O)O2)cc1C(C)C` (centres unmarked) [A(94), Acetic acid 4-[2-(2-cyclopentyl-4,6-dioxo-tetrahydro-pyran-2-yl)-ethyl]-2-isopropyl-phenyl ester] yielded an IC50 of 4000 nM.
With `O=C1CC(=O)OC(CCc2ccc(O)c(Cl)c2)(C2CCCC2)C1` (centres unmarked) [A(95), 6-[2-(3-Chloro-4-hydroxy-phenyl)-ethyl]-6-cyclopentyl-dihydro-pyran-2,4-dione] the IC50 was 2100 nM.
`CCc1cc(CCC2(C3CCCC3)CC(=O)CC(=O)O2)ccc1OC` (centres unmarked) [A(96), 6-Cyclopentyl-6-[2-(3-ethyl-4-methoxy-phenyl)-ethyl]-dihydro-pyran-2,4-dione] was tested, and the IC50 was 3200 nM.
`CCc1nc(C)c(CC2=C(O)CC(CCc3ccc(C(C)(C)C#N)c(F)c3)(C3CCCC3)OC2=O)[nH]1` (centres unmarked) [A(97), 2-[4-(2-{2-cyclopentyl-5-[(2-ethyl-4-methyl-1H-imidazol-5-yl)methyl]-4-hydroxy-6-oxo-3,6-dihydro-2H-pyran-2-yl}ethyl)-2-fluorophenyl]-2-methylpropanenitrile] was tested, and the IC50 was 290 nM.
For `Cn1c(CC2=C(O)CC(CCc3ccc(C(C)(C)C#N)c(F)c3)(C3CCCC3)OC2=O)nc2cc(Cl)ccc21` (centres unmarked) [A(98), 2-[4-(2-{5-[(5-chloro-1-methyl-1H-benzimidazol-2-yl)methyl]-2-cyclopentyl-4-hydroxy-6-oxo-3,6-dihydro-2H-pyran-2-yl}ethyl)-2-fluorophenyl]-2-methylpropanenitrile], the IC50 was 10 nM.
Work on `CC(C)(C#N)c1ccc(CCC2(C3CCCC3)CC(O)=C(Cc3cc[nH]c(=O)c3)C(=O)O2)cc1F` (centres unmarked) [A(99), 2-[4-(2-{2-cyclopentyl-4-hydroxy-6-oxo-5-[(2-oxo-1,2-dihydropyridin-4-yl)methyl]-3,6-dihydro-2H-pyran-2-yl}ethyl)-2-fluorophenyl]-2-methylpropanenitrile] yielded an IC50 of 17 nM.
For `COc1cccc(CC2=C(O)CC(CCc3ccc(C(C)(C)C#N)c(F)c3)(C3CCCC3)OC2=O)c1` (centres unmarked) [A(100), 2-(4-{2-[2-cyclopentyl-4-hydroxy-5-(3-methoxybenzyl)-6-oxo-3,6-dihydro-2H-pyran-2-yl]ethyl}-2-fluorophenyl)-2-methylpropanenitrile], the IC50 was 88 nM.
`CC(C)(C#N)c1ccc(CCC2(C3CCCC3)CC(O)=C(Cc3cccc(S(C)(=O)=O)c3)C(=O)O2)cc1F` (centres unmarked) [A(101), 2-[4-(2-{2-cyclopentyl-4-hydroxy-5-[3-(methylsulfonyl)benzyl]-6-oxo-3,6-dihydro-2H-pyran-2-yl}ethyl)-2-fluorophenyl]-2-methylpropanenitrile] showed an IC50 of 66 nM.
Compound `Cn1cc(Cl)c(CC2=C(O)CC(CCc3ccc(C(C)(C)C#N)c(F)c3)(C3CCCC3)OC2=O)n1` (centres unmarked) [A(102), 2-[4-(2-{5-[(4-chloro-1-methyl-1H-pyrazol-3-yl)methyl]-2-cyclopentyl-4-hydroxy-6-oxo-3,6-dihydro-2H-pyran-2-yl}ethyl)-2-fluorophenyl]-2-methylpropanenitrile] has an IC50 of 5 nM.
`CC(C)(C#N)c1ccc(CCC2(C3CCCC3)CC(O)=C(Cc3cn4ccccc4n3)C(=O)O2)cc1F` (centres unmarked) [A(103), 2-(4-{2-[2-cyclopentyl-4-hydroxy-5-(imidazo[1,2-a]pyridin-2-ylmethyl)-6-oxo-3,6-dihydro-2H-pyran-2-yl]ethyl}-2-fluorophenyl)-2-methylpropanenitrile] showed an IC50 of 180 nM.
Compound `Cc1nc[nH]c1CC1C(=O)CC(CCc2ccc(C(C)(C)C#N)c(F)c2)(C2CCCC2)OC1=O` (centres unmarked) [A(107), 2-(4-{2-[2-Cyclopentyl-5-(5-methyl-3H-imidazol-4-ylmethyl)-4,6-dioxo-tetrahydro-pyran-2-yl]-ethyl}-2-fluoro-phenyl)-2-methyl-propionitrile] has an IC50 of 360 nM.
Compound `CC(C)(C#N)c1ccc(CCC2(C3CCCC3)CC(=O)C(Cc3nc4ncc(Cl)cn4n3)C(=O)O2)cc1F` (centres unmarked) [A(111), 2-(4-{2-[5-(6-Chloro-[1,2,4]triazolo[1,5-a]pyrimidin-2-ylmethyl)-2-cyclopentyl-4,6-dioxo-tetrahydro-pyran-2-yl]-ethyl}-2-fluoro-phenyl)-2-methyl-propionitrile] has an IC50 of 2 nM.
Work on `CCC(C#N)(CC)c1ccc(CCC2(C3CCCC3)CC(=O)C(Cc3nc4nc(C)cc(C)n4n3)C(=O)O2)cc1F` (centres unmarked) [A(112), 2-(4-{2-[2-Cyclopentyl-5-(5,7-dimethyl-[1,2,4]triazolo[1,5-a]pyrimidin-2-ylmethyl)-4,6-dioxo-tetrahydro-pyran-2-yl]-ethyl}-2-fluoro-phenyl)-2-ethyl-butyronitrile] yielded an IC50 of 6 nM.
With `Cc1cnc2nc(CC3C(=O)CC(CCc4ccc(C5(C#N)CC5)c(F)c4)(C4CCCC4)OC3=O)nn2c1` (centres unmarked) [A(113), 1-(4-{2-[2-Cyclopentyl-5-(6-methyl-[1,2,4]triazolo[1,5-a]pyrimidin-2-ylmethyl)-4,6-dioxo-tetrahydro-pyran-2-yl]-ethyl}-2-fluoro-phenyl)-cyclopropanecarbonitrile] the IC50 was 8 nM.
With `N#CC1(c2ccc(CCC3(C4CCCC4)CC(=O)C(Cc4nc5ncccn5n4)C(=O)O3)cc2F)CC1` (centres unmarked) [A(114), 1-{4-[2-(2-Cyclopentyl-4,6-dioxo-5-[1,2,4]triazolo[1,5-a]pyrimidin-2-ylmethyl-tetrahydro-pyran-2-yl)-ethyl]-2-fluoro-phenyl}-cyclopropanecarbonitrile] the IC50 was 10 nM.
`N#CC1(c2ccc(CCC3(C4CCCC4)CC(=O)C(Cc4nc5ncc(Cl)cn5n4)C(=O)O3)cc2F)CC1` (centres unmarked) [A(115), 1-(4-{2-[5-(6-Chloro-[1,2,4]triazolo[1,5-a]pyrimidin-2-ylmethyl)-2-cyclopentyl-4,6-dioxo-tetrahydro-pyran-2-yl]-ethyl}-2-fluoro-phenyl)-cyclopropanecarbonitrile] was tested, and the IC50 was 5 nM.
`Cc1cc(C)n2nc(CC3=C(O)CC(CCc4ccc(CCO)c(F)c4)(C4CCCC4)OC3=O)nc2n1` (centres unmarked) [A(119), 6-Cyclopentyl-3-(5,7-dimethyl-[1,2,4]triazolo[1,5-a]pyrimidin-2-ylmethyl)-6-{2-[3-fluoro-4-(2-hydroxy-ethyl)-phenyl]-ethyl}-4-hydroxy-5,6-dihydro-pyran-2-one] gave an IC50 of 1200 nM.
With `O=C1CC(=O)OC(CCc2ccc(CCO)c(F)c2)(C2CCCC2)C1` (centres unmarked) [A(120)] the IC50 was 13000 nM.
`CC(C)(CO)c1ccc(CCC2(C3CCCC3)CC(=O)CC(=O)O2)cc1F` (centres unmarked) [A(121), 6-Cyclopentyl-6-{2-[3-fluoro-4-(2-hydroxy-1,1-dimethyl-ethyl)-phenyl]-ethyl}-dihydro-pyran-2,4-dione] gave an IC50 of 1300 nM.
`O=C1CC(=O)OC(CCc2cc(F)cc(F)c2)(C2CCCC2)C1` (centres unmarked) [A(122), 6-Cyclopentyl-6-[2-(3,5-difluoro-phenyl)-ethyl]-dihydro-pyran-2,4-dione] showed an IC50 of 31000 nM.
Compound `CCc1cc(CCC2(C3CCCC3)CC(O)=C(Cc3nc4nc(C)cc(C)n4n3)C(=O)O2)cc(F)c1O` (centres unmarked) [A(123), 6-Cyclopentyl-3-(5,7-dimethyl-[1,2,4]triazolo[1,5-a]pyrimidin-2-ylmethyl)-6-[2-(3-ethyl-5-fluoro-4-hydroxy-phenyl)-ethyl]-4-hydroxy-5,6-dihydro-pyran-2-one] has an IC50 of 12 nM.
Compound `CCc1cc(CCC2(C3CCCC3)CC(=O)CC(=O)O2)cc(F)c1O` (centres unmarked) [A(124), 6-Cyclopentyl-6-[2-(3-ethyl-5-fluoro-4-hydroxy-phenyl)-ethyl]-dihydro-pyran-2,4-dione] has an IC50 of 350 nM.
`CCc1cc(CCC2(C3CCCC3)CC(O)=C(Cc3nc4ncc(C)cn4n3)C(=O)O2)cc(F)c1O` (centres unmarked) [A(125), 6-Cyclopentyl-6-[2-(3-ethyl-5-fluoro-4-hydroxy-phenyl)-ethyl]-4-hydroxy-3-(6-methyl-[1,2,4]triazolo[1,5-a]pyrimidin-2-ylmethyl)-5,6-dihydro-pyran-2-one] showed an IC50 of 11 nM.
Work on `CCc1cc(CCC2(C3CCCC3)CC(O)=C(Cc3nc4ncc(C)cn4n3)C(=O)O2)ccc1O` (centres unmarked) [A(126), 6-Cyclopentyl-6-[2-(3-ethyl-4-hydroxy-phenyl)-ethyl]-4-hydroxy-3-(6-methyl-[1,2,4]triazolo[1,5-a]pyrimidin-2-ylmethyl)-5,6-dihydro-pyran-2-one] yielded an IC50 of 9 nM.
Compound `CCc1cc(CCC2(C3CCCC3)CC(O)=C(Cc3nc4ncc(Cl)cn4n3)C(=O)O2)ccc1O` (centres unmarked) [A(127), 3-(6-Chloro-[1,2,4]triazolo[1,5-a]pyrimidin-2-ylmethyl)-6-cyclopentyl-6-[2-(3-ethyl-4-hydroxy-phenyl)-ethyl]-4-hydroxy-5,6-dihydro-pyran-2-one] has an IC50 of 5 nM.
`CCc1cc(CCC2(C3CCCC3)CC(=O)CC(=O)O2)ccc1OCCO` (centres unmarked) [A(128), 6-Cyclopentyl-6-{2-[3-ethyl-4-(2-hydroxy-ethoxy)-phenyl]-ethyl}-dihydro-pyran-2,4-dione] showed an IC50 of 490 nM.
